Assay results reported in paper PMC9315260, “Diarylamine-Guided Carboxamide Derivatives: Synthesis, Biological Evaluation, and Potential Mechanism of Action” (Frontiers in Chemistry, 2022).

Tests used:
PLK1 = PLK1 (Homo sapiens, UniProt P53350); experiment: ADP-GLO kinase inhibitory assay, PLK1; type: biochemical
Protocol: (§1) Based on the aforementioned results for the potential mechanism of action, the kinase inhibitory profile of compounds C6 and C11 were screened at two dose concentration of 10 and 1 µM over a panel of 15 kinases, and the kinase inhibitory activities are listed in supporting information (Supplementary Table S1).
(§2) The kinase inhibitory profile of compounds C6 and C11 were screened at two dose concentration of 10 and 1 µM over a panel of 15 kinases, and each assay was repeated twice. All the inhibitory assays were carried out through kinase profiling services provided by HY Biotech (Chinese), in which ADP-GLO kinase assays were used.
(§3) The kinase inhibitory profile of compounds C6 and C11 were screened at two dose concentration of 10 µM and 1 µM over a panel of 15 kinases, and each assay was repeated twice. All the inhibitory assays were carried out through kinase profiling services provided by HY Biotech (Chinese), in which ADP-GLO kinase assays were used.

DAPK1 = DAPK1 (Homo sapiens, UniProt P53355); experiment: ADP-GLO kinase inhibitory assay, DAPK1; type: biochemical
Sequence of DAPK1 (P53355 whole entry, species assumed): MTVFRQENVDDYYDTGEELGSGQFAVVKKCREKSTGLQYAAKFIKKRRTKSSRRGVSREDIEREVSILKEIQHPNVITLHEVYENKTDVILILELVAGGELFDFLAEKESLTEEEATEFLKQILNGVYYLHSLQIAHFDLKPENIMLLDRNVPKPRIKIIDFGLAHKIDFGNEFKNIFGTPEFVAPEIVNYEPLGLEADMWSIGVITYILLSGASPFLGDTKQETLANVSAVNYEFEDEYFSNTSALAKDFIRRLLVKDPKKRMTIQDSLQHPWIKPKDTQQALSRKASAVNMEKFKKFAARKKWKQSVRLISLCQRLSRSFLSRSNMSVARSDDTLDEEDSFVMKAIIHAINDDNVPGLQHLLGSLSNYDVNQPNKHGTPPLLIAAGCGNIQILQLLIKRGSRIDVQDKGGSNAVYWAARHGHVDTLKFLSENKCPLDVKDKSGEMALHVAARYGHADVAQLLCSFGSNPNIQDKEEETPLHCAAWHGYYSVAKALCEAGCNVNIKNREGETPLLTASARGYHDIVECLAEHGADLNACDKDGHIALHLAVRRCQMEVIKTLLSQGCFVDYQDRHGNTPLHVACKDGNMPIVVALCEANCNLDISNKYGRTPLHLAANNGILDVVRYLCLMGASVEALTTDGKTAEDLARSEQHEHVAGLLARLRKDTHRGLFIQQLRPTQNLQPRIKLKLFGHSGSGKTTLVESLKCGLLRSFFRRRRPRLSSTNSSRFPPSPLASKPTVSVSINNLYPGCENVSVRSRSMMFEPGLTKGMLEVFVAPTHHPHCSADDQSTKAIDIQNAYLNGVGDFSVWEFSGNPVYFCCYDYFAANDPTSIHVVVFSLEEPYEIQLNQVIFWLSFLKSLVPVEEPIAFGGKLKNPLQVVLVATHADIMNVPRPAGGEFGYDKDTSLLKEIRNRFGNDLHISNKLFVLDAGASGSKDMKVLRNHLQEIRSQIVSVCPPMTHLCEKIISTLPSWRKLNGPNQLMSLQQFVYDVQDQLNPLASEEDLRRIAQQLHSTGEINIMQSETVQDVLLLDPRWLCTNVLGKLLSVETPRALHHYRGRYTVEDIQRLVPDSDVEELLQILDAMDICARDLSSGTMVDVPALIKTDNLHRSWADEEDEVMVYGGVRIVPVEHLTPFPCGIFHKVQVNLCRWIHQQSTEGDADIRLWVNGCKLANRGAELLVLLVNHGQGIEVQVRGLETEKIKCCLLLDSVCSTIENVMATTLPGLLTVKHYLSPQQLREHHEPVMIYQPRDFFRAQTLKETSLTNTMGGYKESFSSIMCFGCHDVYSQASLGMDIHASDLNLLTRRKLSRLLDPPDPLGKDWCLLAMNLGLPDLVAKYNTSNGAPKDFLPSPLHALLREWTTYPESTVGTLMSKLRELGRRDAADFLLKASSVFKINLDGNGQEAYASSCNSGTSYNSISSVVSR
Protocol: as §1, §2, §3

[1] = test system: MARC145 (subclone of African green monkey kidney cell line MA-104); experiment: MTT in vitro cytotoxicity assay, MARC145; type: cell-based; details: at 100 µM; for inhibition at 100 µM: Chlorocebus sabaeus, MARC145, read-out: Cell growth inhibition (%) MARC145
Protocol: (§4) The lead molecules A2 and all newly prepared diarylamine derivatives B1-13 and C1-11 were evaluated for their in vitro cytotoxic effects against SGC-7901, A875, HepG2 and MARC145 cell lines by the classical MTT [3-(4,5-dimethylthiazol-2-yl)-2,5-diphenyl tetrazolium bromide] assay ([Alley et al., 1988]; [Ke et al., 2012]; [Shi et al., 2012]; [Yu et al., 2015]; [Ke et al., 2019]; [Xu et al., 2019]; [Huang et al., 2021]) using 5-FU (5-Fluorouracil) as a control.
(§5) The cytotoxicity of target compounds was determined with MTT assay ([Alley et al., 1988]; [Ke et al., 2012]; [Shi et al., 2012]; [Yu et al., 2015]; [Ke et al., 2019]; [Xu et al., 2019]; [Huang et al., 2021]). SGC-7901, A875, HepG2 and MARC145 cell lines were obtained from Hubei Biopesticide Engineering Research Centre. All data of the experiment were analyzed with SPSS software, and all assay were performed in triplicate on three independent experiments, and measurement data were expressed as the mean ± S.D.
(§6) The in vitro cytotoxicity of the synthesized compounds against different cell lines (SGC-7901, A875, HepG2 and MARC145) was measured with MTT assay. All the data of the experiment were analyzed with SPSS software, and the 50% inhibitory concentrations (IC50) of each compound for the different cell lines were determined. A control was run for each test, and all assays were performed in triplicate on three independent experiments, and measurement data were expressed as the mean ± S.D.

[2] = MTT in vitro cytotoxicity assay, MARC145; type: cell-based, African green monkey; details: African green monkey, MARC145 cells (kidney cell line, subclone of MA-104), Table 3; MTT; mean ± S.D.
Protocol: as §4, §5, §6

AKT3 = AKT3 (Homo sapiens, UniProt Q9Y243); experiment: ADP-GLO kinase inhibitory assay, AKT3; type: biochemical
Sequence of AKT3 (Q9Y243 whole entry, species assumed): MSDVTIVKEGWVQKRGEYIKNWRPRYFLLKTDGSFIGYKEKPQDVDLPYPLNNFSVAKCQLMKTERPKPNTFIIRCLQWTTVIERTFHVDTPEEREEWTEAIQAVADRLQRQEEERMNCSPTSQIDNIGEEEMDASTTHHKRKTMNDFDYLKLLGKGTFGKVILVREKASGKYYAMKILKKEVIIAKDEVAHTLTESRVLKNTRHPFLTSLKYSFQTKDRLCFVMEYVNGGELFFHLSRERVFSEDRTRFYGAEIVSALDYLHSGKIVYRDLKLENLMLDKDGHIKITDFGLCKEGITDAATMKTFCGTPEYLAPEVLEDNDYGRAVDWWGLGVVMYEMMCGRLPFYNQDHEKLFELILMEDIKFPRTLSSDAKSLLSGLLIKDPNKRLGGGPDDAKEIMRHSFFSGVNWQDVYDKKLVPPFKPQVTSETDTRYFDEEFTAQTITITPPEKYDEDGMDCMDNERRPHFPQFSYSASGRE
Protocol: as §1, §2, §3

CHK1 = biological target: T1, CHK1 (Homo sapiens, UniProt O14757); experiment: ADP-GLO kinase inhibitory assay, CHK1; type: biochemical
T1 sequence (O14757 1-476): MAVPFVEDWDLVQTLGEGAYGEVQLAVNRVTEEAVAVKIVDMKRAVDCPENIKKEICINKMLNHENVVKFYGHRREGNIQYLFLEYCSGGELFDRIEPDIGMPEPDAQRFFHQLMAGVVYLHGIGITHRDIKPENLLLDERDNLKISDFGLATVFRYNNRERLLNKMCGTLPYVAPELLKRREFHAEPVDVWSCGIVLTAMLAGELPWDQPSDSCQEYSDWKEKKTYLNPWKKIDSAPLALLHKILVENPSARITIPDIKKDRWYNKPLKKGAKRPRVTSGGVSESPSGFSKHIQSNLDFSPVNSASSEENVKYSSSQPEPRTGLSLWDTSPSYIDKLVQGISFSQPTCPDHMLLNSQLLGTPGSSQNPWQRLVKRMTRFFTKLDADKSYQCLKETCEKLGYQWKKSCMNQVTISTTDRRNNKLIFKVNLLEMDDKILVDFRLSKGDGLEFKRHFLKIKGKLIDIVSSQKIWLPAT
Protocol: as §1, §2, §3

AKT1 = AKT1 (Homo sapiens, UniProt P31749); experiment: ADP-GLO kinase inhibitory assay, AKT1; type: biochemical
Sequence of AKT1 (P31749 whole entry, species assumed): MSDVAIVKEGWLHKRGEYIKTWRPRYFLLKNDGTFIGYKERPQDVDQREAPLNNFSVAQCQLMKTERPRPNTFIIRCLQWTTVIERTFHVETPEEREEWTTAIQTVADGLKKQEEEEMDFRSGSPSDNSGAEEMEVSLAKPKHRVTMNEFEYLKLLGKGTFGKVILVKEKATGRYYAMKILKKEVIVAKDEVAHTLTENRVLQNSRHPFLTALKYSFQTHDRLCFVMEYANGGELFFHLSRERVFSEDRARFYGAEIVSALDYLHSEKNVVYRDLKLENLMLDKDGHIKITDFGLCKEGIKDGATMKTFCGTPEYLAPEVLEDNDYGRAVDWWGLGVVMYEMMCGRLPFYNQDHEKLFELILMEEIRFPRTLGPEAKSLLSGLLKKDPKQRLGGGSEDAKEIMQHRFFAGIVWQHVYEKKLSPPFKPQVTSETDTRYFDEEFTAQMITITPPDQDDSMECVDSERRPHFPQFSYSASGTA
Protocol: as §1, §2, §3

CAMK2 alpha = CAMK2 alpha (Homo sapiens, UniProt Q9UQM7); experiment: ADP-GLO kinase inhibitory assay, CAMK2 alpha; type: biochemical
Protocol: as §1, §2, §3

A875 cells = experiment: LDH release (cellular necrosis); type: cell-based, human; details: 24 h after treatment
Protocol: From the preliminary analysis of apoptosis, the results encourage us to further investigate the type of cell death induced by the potential compounds (C6 and C11). As we know, the release of LDH is a typical characteristic feature of necrotic cell death, and so which was detected.
A875 cells grown in 96-well plates were treated with serial dilutions of each tested compound for 24 h. The culture media were collected, and the concentrations of LDH were determined based on our previous research ([Huang et al., 2021]).
A875 cells grown in 96-well plates were treated with serial dilutions of each tested compound for 24 h. The culture media were collected, and the concentrations of LDH were determined with an LDH assay kit according to the manufacturer’s instructions (Abcam).

MAPK1 = MAPK1 (Homo sapiens, UniProt P28482); experiment: ADP-GLO kinase inhibitory assay, MAPK1; type: biochemical; details: for inhibition of MAPK1, in words: at 1 μM
Sequence of MAPK1 (P28482 whole entry, species assumed): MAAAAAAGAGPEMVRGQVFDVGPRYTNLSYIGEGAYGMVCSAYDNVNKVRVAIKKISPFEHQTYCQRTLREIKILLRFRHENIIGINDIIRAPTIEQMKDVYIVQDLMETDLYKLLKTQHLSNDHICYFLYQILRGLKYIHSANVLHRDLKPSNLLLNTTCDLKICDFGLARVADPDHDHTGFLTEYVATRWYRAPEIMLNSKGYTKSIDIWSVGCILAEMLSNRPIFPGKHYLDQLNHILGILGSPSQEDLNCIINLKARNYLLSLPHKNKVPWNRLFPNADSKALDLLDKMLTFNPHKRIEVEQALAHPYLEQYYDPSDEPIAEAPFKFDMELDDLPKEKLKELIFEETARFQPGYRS
Protocol: as §1, §2, §3

[3] = test system: A875 (human melanoma cell line); experiment: MTT in vitro cytotoxicity assay, A875; type: cell-based; details: for IC50: A875, Table 3, MTT, mean ± S.D.; for inhibition at 100 µM: A875, at 100 µM, read-out: Cell growth inhibition (%) A875
Protocol: as §4, §5, §6

PAK3 = PAK3 (Homo sapiens, UniProt O75914); experiment: ADP-GLO kinase inhibitory assay, PAK3; type: biochemical
Sequence of PAK3 (O75914 whole entry, species assumed): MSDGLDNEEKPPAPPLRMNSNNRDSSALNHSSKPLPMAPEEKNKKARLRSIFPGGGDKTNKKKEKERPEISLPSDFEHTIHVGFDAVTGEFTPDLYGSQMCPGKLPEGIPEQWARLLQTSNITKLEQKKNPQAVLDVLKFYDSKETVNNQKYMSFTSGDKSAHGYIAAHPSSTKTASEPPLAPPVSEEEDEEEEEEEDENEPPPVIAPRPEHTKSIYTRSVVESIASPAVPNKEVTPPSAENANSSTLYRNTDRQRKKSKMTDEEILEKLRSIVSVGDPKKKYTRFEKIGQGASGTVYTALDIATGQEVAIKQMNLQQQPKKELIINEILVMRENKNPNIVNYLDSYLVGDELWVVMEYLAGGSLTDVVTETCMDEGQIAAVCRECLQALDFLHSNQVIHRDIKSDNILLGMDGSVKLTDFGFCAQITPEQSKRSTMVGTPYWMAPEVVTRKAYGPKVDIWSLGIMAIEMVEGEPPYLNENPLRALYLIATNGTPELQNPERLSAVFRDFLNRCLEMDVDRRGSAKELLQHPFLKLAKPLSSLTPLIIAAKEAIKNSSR
Protocol: as §1, §2, §3

CDK1/A2 = CDK1/A2 (Homo sapiens, UniProt P06493); experiment: ADP-GLO kinase inhibitory assay, CDK1/A2; type: biochemical
Sequence of CDK1/A2 (P06493 whole entry, species assumed): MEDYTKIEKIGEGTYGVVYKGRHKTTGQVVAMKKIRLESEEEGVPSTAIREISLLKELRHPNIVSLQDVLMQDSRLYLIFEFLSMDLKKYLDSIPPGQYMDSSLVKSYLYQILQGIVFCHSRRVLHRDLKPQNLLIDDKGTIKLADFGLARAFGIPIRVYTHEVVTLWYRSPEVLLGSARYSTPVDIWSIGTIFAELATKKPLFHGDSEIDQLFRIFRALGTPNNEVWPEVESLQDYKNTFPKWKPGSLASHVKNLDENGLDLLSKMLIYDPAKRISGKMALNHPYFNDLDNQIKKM
Sequence of CDK1/A2 (P20248 whole entry partner, species assumed): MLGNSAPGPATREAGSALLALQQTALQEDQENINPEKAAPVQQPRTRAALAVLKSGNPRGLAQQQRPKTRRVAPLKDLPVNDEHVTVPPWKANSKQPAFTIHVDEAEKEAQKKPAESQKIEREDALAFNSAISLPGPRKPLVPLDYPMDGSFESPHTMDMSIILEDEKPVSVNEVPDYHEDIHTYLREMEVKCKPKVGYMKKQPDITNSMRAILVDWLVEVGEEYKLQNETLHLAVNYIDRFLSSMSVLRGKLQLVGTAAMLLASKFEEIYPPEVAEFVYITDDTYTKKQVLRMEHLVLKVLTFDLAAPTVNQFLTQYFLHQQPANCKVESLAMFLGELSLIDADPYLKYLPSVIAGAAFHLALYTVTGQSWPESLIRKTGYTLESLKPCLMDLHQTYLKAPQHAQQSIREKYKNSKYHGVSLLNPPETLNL
Protocol: as §1, §2, §3

Sequence of PLK1 (P53350 whole entry, species assumed): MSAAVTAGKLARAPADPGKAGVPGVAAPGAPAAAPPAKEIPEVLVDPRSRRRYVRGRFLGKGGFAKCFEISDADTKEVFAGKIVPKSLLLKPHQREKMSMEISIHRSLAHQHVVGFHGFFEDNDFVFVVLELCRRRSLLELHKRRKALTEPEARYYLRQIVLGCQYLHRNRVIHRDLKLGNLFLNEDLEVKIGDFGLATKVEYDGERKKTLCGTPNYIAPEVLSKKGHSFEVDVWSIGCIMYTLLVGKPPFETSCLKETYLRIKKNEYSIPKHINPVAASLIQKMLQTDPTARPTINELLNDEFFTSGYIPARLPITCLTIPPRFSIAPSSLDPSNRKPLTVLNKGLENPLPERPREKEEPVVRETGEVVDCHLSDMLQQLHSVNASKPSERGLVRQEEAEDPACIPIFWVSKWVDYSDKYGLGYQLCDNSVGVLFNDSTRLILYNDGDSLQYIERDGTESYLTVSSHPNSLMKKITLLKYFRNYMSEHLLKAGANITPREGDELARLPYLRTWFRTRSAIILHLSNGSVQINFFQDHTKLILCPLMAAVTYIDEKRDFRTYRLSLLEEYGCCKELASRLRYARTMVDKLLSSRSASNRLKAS

| SMILES | inhibition at 1 µM (PLK1) [%] | inhibition at 10 µM (PLK1) [%] | inhibition at 1 µM (DAPK1) [%] | inhibition at 10 µM (DAPK1) [%] | inhibition at 100 µM [1] [%] | IC50 [2] [µM] | inhibition at 1 µM (AKT3) [%] | inhibition at 10 µM (AKT3) [%] | inhibition at 1 µM (CHK1) [%] | inhibition at 10 µM (CHK1) [%] | inhibition at 1 µM (AKT1) [%] | inhibition at 10 µM (AKT1) [%] | inhibition at 1 µM (CAMK2 alpha) [%] | inhibition at 10 µM (CAMK2 alpha) [%] | release of LDH, in words (A875 cells) | inhibition at 1 µM (MAPK1) [%] | inhibition at 10 µM (MAPK1) [%] | inhibition of MAPK1, in words (MAPK1) | IC50 [3] [µM] | inhibition at 100 µM [3] [%] | further results |
| --- | --- | --- | --- | --- | --- | --- | --- | --- | --- | --- | --- | --- | --- | --- | --- | --- | --- | --- | --- | --- | --- |
| O=C(Nc1cccc(C(F)(F)F)c1)c1cccnc1Nc1cccc(C(F)(F)F)c1 [C6, N-(3-(Trifluoromethyl)phenyl)-2-((3-(trifluoromethyl)phenyl)amino)nicotinamide] | 5.21 | -0.95 | 8.48 | -7.18 | 89.8 ± 3.4 | 9.72 ± 2.75 | 16.1 | -2.65 | 10.2 | -0.18 | 10.4 | -6.77 | 5.12 | 37.8 | significantly increased | 28.8 | 17.6 | certain inhibitions | 12.8 ± 1.99 | 91.5 ± 2.9 | inhibition at 1 µM (PAK3): 10.1%; inhibition at 10 µM (PAK3): 1.34%; inhibition at 1 µM (CDK1/A2): 1.55%; inhibition at 10 µM (CDK1/A2): -3.82% |
| O=C(Nc1ccc(Cl)nc1)c1cccnc1Nc1cccc(C(F)(F)F)c1 [C11, N-(6-Chloropyridin-3-yl)-2-((3-(trifluoromethyl)phenyl)amino)nicotinamide] | 7.32 | 2.02 | -2.25 | 6.49 | 27.1 ± 3.6 | > 102 | 20.1 | -0.49 | 19.5 | 3.66 | 13.3 | -5.21 | 5.65 | -1.53 | significantly increased | 24.4 | 7.96 | some inhibitions | 12.3 ± 4.16 | 90.5 ± 3.7 | inhibition on normal cell lines (MARC145), in words [1]: low inhibition; inhibition at 1 µM (PAK3): 11.8%; inhibition at 10 µM (PAK3): 8.14%; inhibition at 1 µM (CDK1/A2): 38.2%; inhibition at 10 µM (CDK1/A2): -7.23%; inhibition of CDK1/A2, in words (CDK1/A2; at 1 μM): some inhibitions |
